Laboratory results reported in US5723747A, “Wax esters in transformed plants” (Calgene, Inc., priority 1994, dated 1998).
Where two headings read alike, the source gives them in different places.

What was measured:
[1] = biological target: T1, jojoba acyl-CoA reductase (Simmondsia chinensis, UniProt Q9XGY7, S459G); experiment: biochemical; conditions: for effect of salt on reductase activity (in words): 0.5M monobasic salts, divalent salts at 0.167M and 0.5M; for effect of end-products and cofactors on reductase activity (in words): CoA and NADP+ at millimolar concentrations; for Reductase Activity, Acyl-CoA (10 μM): acyl-CoA as substrate at 10 μM, 0.5M NaCl, pH 7.5
T1 sequence (Q9XGY7 whole entry S459G): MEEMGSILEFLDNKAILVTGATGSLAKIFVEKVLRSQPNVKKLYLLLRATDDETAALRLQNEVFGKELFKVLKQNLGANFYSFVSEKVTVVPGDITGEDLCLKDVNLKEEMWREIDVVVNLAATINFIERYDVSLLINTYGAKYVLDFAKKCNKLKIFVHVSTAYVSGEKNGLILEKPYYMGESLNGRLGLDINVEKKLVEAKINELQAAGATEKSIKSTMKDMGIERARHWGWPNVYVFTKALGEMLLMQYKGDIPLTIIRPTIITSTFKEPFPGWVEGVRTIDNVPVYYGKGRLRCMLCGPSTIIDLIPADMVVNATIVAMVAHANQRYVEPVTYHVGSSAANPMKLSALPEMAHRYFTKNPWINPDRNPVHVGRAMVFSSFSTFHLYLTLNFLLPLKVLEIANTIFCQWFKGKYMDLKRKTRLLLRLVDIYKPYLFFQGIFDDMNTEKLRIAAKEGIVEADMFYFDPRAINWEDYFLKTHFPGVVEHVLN
Experimental: (§1) […] The incubation mixture also contains 10% w/v glycerol, 1 mM DTT, and is buffered with 50 mM HEPES (4-[2-hydroxyethyl]-1-piperazineethane-sulfonic acid) (HEPES, here and as referred to hereafter is added from a 1M stock solution adjusted to pH 7.5).
(§2) […] The assay is terminated by placing the assay tube on ice and immediately adding 0.25 ml isopropanol:acetic acid (5:1 v/v). Unlabeled wax esters (0.1 mg) and oleyl alcohol (0.1 mg) are added as carriers. The [^14 C] lipids are extracted by the scaled-down protocol of Hara and Radin (Anal. Biochem. (1978) 90:420). Six ml of hexane/isopropanol (3:2, v/v) is added to the terminated assay. The sample is vortexed, 2 ml of aqueous sodium sulphate solution (5.5% w/v) is added, and the sample is again vortexed.
(§3) The incubation mixture also contains 10% w/v glycerol, 1 mM DTT, and is buffered with 50 mM HEPES (4-[2-hydroxyethyl]-1-piperazineethane-sulfonic acid) (HEPES, here and as referred to hereafter is added from a 1M stock solution adjusted to pH 7.5). […]
(§4) […] The assay is terminated by placing the assay tube on ice and immediately adding 0.25 ml isopropanol:acetic acid (4:1 v/v). Unlabeled wax esters (25 μg), oleyl alcohol (50 μg), and oleic acid (50 μg) are added as carriers. The [^14 C] lipids are extracted by the scaled-down protocol of Hara and Radin (Anal. Biochem. (1978) 90:420). Four ml of hexane/isopropanol (3:2, v/v) is added to the terminated assay. The sample is vortexed, 2 ml of aqueous sodium sulphate solution (6.7% w/v) is added, and the sample is again vortexed.
(§5) Following addition of the sodium sulphate and vortexing the sample, the upper organic phase is removed and the lower aqueous phase is washed with 4 ml hexane/isopropanol (7:2 v/v). The organic phases are pooled and evaporated to dryness under nitrogen. The lipid residue is resuspended in a small volume of heptane, and an aliquot is assayed for radioactivity by liquid scintillation counting. The remainder of the sample can be used either for TLC analysis of the labeled classes, or for derivatization to cleave the wax esters, and thereby give a measure of total alcohol produced.
(§6) For lipid class analysis the sample is applied to a silica TLC plate, and the plate is developed in hexane/diethyl ether/acetic acid (such as 80:20:1 or 70:30:1 v/v/v). The distribution of radioactivity between the lipid classes, largely wax esters (when ligase is present, as in the microsomal membrane preparation assay), free fatty acids, fatty alcohols, and polar lipids at the origin, is measured using an AMBIS radioanalytic imaging system (AMBIS Systems Inc., San Diego, Calif.). If necessary the individual lipid classes can be recovered from the TLC plate for further analysis.
(§7) Following addition of the sodium sulfate and vortexing the sample, a known percentage of the organic phase is removed and counted via liquid scintillation counting. This calculation is used to estimate the total counts in the organic phase.

jojoba wax synthase = biological target: T2, jojoba wax synthase (Simmondsia chinensis, UniProt Q9XGY6); experiment: Wax synthase assay, microsomal membrane fraction; format: biochemical; conditions: for Wax synthase Activity, Acyl Group: 80 μM acyl-CoA substrate, 100 μM radiolabeled oleyl alcohol; for Wax synthase Activity, Alcohol Group: 100 μM alcohol substrate, 40 μM radiolabeled eicosenoyl-CoA
T2 construct: added to a microsomal membrane fraction having wax synthase activity; from tissue; host or cells: jojoba microsomal membrane fraction
T2 sequence (Q9XGY6 1-352): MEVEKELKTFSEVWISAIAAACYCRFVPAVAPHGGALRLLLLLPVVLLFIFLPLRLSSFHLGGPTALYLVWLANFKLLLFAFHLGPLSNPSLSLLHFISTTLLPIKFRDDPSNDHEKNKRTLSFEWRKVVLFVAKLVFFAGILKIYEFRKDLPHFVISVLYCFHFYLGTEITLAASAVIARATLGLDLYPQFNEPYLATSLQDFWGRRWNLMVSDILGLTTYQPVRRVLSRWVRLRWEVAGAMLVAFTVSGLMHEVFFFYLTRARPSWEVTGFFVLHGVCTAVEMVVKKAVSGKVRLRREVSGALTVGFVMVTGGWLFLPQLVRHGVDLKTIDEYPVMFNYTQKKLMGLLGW
Experimental: Wax synthase activity is measured by incubation of 40 μM [1-^14 C]acyl-CoA (usually palmitoyl-CoA, sp. act. 5.1-5.6 mCi/mmol) and 200 μM oleyl alcohol with the sample to be assayed in a total volume of 0.25 ml. The incubation mixture also contains 20% w/v glycerol, 1 mM DTT, 0.5M NaCl and is buffered with 25 mM HEPES (4-[2-hydroxyethyl]-1-piperazineethane-sulfonic acid).
A substrate mixture is prepared in a glass vial, with oleyl alcohol being added immediately before use, and is added to samples.
Acyl-CoA and alcohol substrates having varying carbon chain lengths and degrees of unsaturation were added to a microsomal membrane fraction having wax synthase activity to determine the range of substrates recognized by the jojoba wax synthase. Wax synthase activity was measured as described in Example 1, with acyl specificity measured using 80 μM of acyl-CoA substrate and 100 μM of radiolabeled oleyl alcohol. Alcohol specificity was measured using 100 μM of alcohol substrate and 40 μM of radiolabeled eicosenoyl-CoA.

[2] = biological target: T1, jojoba acyl-CoA reductase; design: The microsomal membrane preparation described above is used for further characterization of the reductase enzyme; from tissue; host or cells: jojoba embryos (about 90 to 110 days postanthesis), microsomal membrane preparation; conditions: previously shown, Pollard et al.; cited from earlier work
[3] = biological target: jojoba acyl-CoA reductase (Simmondsia chinensis, UniProt Q9XGY7); experiment: biochemical
Sequence of jojoba acyl-CoA reductase (Simmondsia chinensis, UniProt Q9XGY7) (Q9XGY7 whole entry S459G): as the sequence (Q9XGY7 whole entry S459G) above
Experimental: as §1, §2, §3, §4, §5, §6, §7

[4] = palmitoyl thioesters as acyl substrates

Compound: NC(=O)CI [iodoacetamide]
- inhibitory effect on jojoba acyl-CoA reductase activity (in words) [1]: no effect

Compound: O=S(=O)([O-])[O-].[Na+].[Na+] [Na2 SO4]
- effect of salt on reductase activity (in words) [1]: stimulate reductase activity

Compound: NC(=O)c1ccc[n+]([C@@H]2O[C@H](COP(=O)([O-])OP(=O)(O)OC[C@H]3O[C@@H](n4cnc5c(N)ncnc54)[C@H](O)[C@@H]3O)[C@@H](O)[C@H]2O)c1 [AND+]
- effect of end-products and cofactors on reductase activity (in words) [1]: marginal effects

Compound: palmitoyl-ACP [16:0]
- wax synthase activity relative to acyl-CoA (jojoba wax synthase; [4]): ~ 10 % of that with acyl-CoA
- activity as substrate of the reductase (in words) ([1]; substrate specificity experiment, 10 uM substrate): high

Compound: CCCCCCCCCCCCCCCC(=O)SCCNC(C)=O [N-acetyl-S-palmitoyl cysteamine]
- wax synthase activity towards acyl-thioester substrates (in words) (jojoba wax synthase; [4]): no activity was detectable

Compound: stearoyl-ACP
- activity as substrate of the reductase (in words) [2]: shown to have activity as a substrate

Compound: NC(=O)c1ccc[n+]([C@@H]2O[C@H](COP(=O)([O-])OP(=O)(O)OC[C@H]3O[C@@H](n4cnc5c(N)ncnc54)[C@H](OP(=O)(O)O)[C@@H]3O)[C@@H](O)[C@H]2O)c1 [NADP+]
- effect of end-products and cofactors on reductase activity (in words) [1]: significant inhibition

Compound: O=C(O)CN(CCN(CC(=O)O)CC(=O)O)CC(=O)O [EDTA, ethylenediaminetetraacetic acid]
- effect of effector on reductase activity (in words) [1]: some stimulation

Compound: CCCCCCCCCCCCCCCCCCCCCC(=O)SCCNC(=O)CCNC(=O)[C@H](O)C(C)(C)COP(=O)(O)OP(=O)(O)OC[C@H]1O[C@@H](n2cnc3c(N)ncnc32)[C@H](O)[C@@H]1OP(=O)(O)O [22:0]
- Wax synthase Activity, Acyl Group (jojoba wax synthase): 46 pmol/min
- Wax synthase Activity, Alcohol Group (jojoba wax synthase): 17 pmol/min

Compound: CCCCCCCCCCCCCC(=O)SCCNC(=O)CCNC(=O)[C@H](O)C(C)(C)COP(=O)(O)OP(=O)(O)OC[C@H]1O[C@@H](n2cnc3c(N)ncnc32)[C@H](O)[C@@H]1OP(=O)(O)O [14:0]
- Wax synthase Activity, Acyl Group (jojoba wax synthase): 95 pmol/min
- Wax synthase Activity, Alcohol Group (jojoba wax synthase): 145 pmol/min

Compound: CCN1C(=O)C=CC1=O [N-ethylmaleimide]
- inhibitory effect on jojoba acyl-CoA reductase activity (in words) [1]: strongly inhibit

Compound: CCCCCCCCCCCCCCCC(=O)SCCNC(=O)CCNC(=O)[C@H](O)C(C)(C)COP(=O)(O)OP(=O)(O)OC[C@H]1O[C@@H](n2cnc3c(N)ncnc32)[C@H](O)[C@@H]1OP(=O)(O)O [16:0, palmitoyl-CoA]
- IC50 [3]: 5 µM

Compound: CC(C)(COP(=O)(O)OP(=O)(O)OC[C@H]1O[C@@H](n2cnc3c(N)ncnc32)[C@H](O)[C@@H]1OP(=O)(O)O)[C@@H](O)C(=O)NCCC(=O)NCCS [CoA]
- effect of end-products and cofactors on reductase activity (in words) [1]: significant inhibition

Compound: [Ca+2].[Cl-].[Cl-] [CaCl2]
- effect of salt on reductase activity (in words) [1]: stimulate reductase activity

Compound: CCCCCCCC/C=C\CCCCCCCCCCCC(=O)SCCNC(=O)CCNC(=O)[C@H](O)C(C)(C)COP(=O)(O)OP(=O)(O)OC[C@H]1O[C@@H](n2cnc3c(N)ncnc32)[C@H](O)[C@@H]1OP(=O)(O)O [22:1]
- Wax synthase Activity, Acyl Group (jojoba wax synthase): 39 pmol/min
- Wax synthase Activity, Alcohol Group (jojoba wax synthase): 41 pmol/min
- Reductase Activity, Acyl-CoA (10 μM) [1]: 1.0 pmol/min/µL

Compound: [Cl-].[Cl-].[Mg+2] [MgCl2]
- effect of salt on reductase activity (in words) [1]: stimulate reductase activity

Compound: [Cl-].[Li+] [LiC1]
- effect of salt on reductase activity (in words) [1]: stimulate reductase activity

Compound: [Cl-].[Na+] [NaCl]
- stimulation of reductase activity ([1]; addition of 0.5M salt, 500000 µM): Up to 15 fold

Compound: O=C(O)c1cc[c]([Hg][OH])cc1 [para-hydroxymercuribenzoate]
- inhibitory effect on jojoba acyl-CoA reductase activity (in words) [1]: some inhibitory effect

Compound: NC(=O)C1=CN([C@@H]2O[C@H](COP(=O)(O)OP(=O)(O)OC[C@H]3O[C@@H](n4cnc5c(N)ncnc54)[C@H](O)[C@@H]3O)[C@@H](O)[C@H]2O)C=CC1 [NADH]
- effect of end-products and cofactors on reductase activity (in words) [1]: marginal effects

Compound: O[C@H](CS)[C@H](O)CS (racemic) [DTT, Dithiothreitol]
- effect of effector on reductase activity (in words) [1]: stimulatory

Compound: [Cl-].[K+] [KC1]
- effect of salt on reductase activity (in words) [1]: stimulate reductase activity

Compound: CCCCCCCCCCCCCCCCCCCC(=O)SCCNC(=O)CCNC(=O)[C@H](O)C(C)(C)COP(=O)(O)OP(=O)(O)OC[C@H]1O[C@@H](n2cnc3c(N)ncnc32)[C@H](O)[C@@H]1OP(=O)(O)O [20:0]
- Wax synthase Activity, Acyl Group (jojoba wax synthase): 49 pmol/min
- Wax synthase Activity, Alcohol Group (jojoba wax synthase): 21 pmol/min

Compound: CCCCCCCCCCCCCCCCCC(=O)SCCNC(=O)CCNC(=O)[C@H](O)C(C)(C)COP(=O)(O)OP(=O)(O)OC[C@H]1O[C@@H](n2cnc3c(N)ncnc32)[C@H](O)[C@@H]1OP(=O)(O)O [18:0]
- Wax synthase Activity, Acyl Group (jojoba wax synthase): 51 pmol/min
- Wax synthase Activity, Alcohol Group (jojoba wax synthase): 56 pmol/min
- Reductase Activity, Acyl-CoA (10 μM) [1]: 1.4 pmol/min/µL

Compound: CCCCC/C=C\C/C=C\CCCCCCCC(=O)SCCNC(=O)CCNC(=O)[C@H](O)C(C)(C)COP(=O)(O)OP(=O)(O)OC[C@H]1O[C@@H](n2cnc3c(N)ncnc32)[C@H](O)[C@@H]1OP(=O)(O)O [18:2]
- Wax synthase Activity, Acyl Group (jojoba wax synthase): 7 pmol/min
- Wax synthase Activity, Alcohol Group (jojoba wax synthase): 123 pmol/min

Compound: C/C=C/C/C=C/CCC(=O)[C@H]1O[C@H]1C(N)=O [Cerulinen]
- inhibitory effect on jojoba acyl-CoA reductase activity (in words) [1]: no strong inhibitory effect

Compound: bovine serum albumin [BSA]
- effect on reductase activity (in words) ([1]; concentrations at and above 0.2 mg/ml): inhibition of activity
- effect on reductase activity (in words) ([1]; low concentrations, 0.02-0.075 mg/ml): small stimulation

Compound: N#CS [KSCN]
- effect of salt on reductase activity (in words) [1]: no stimulation or marginal stimulation

Compound: CC[C@H](C)C(=O)O[C@H]1C[C@@H](C)C=C2C=C[C@H](C)[C@H](CC[C@@H]3C[C@@H](O)CC(=O)O3)[C@H]21 [Mevinolin]
- concentration at which an effect on jojoba acyl-CoA reductase is seen ([1]; only has an effect at relatively high concentrations): 100 µM
